# Reference: article PMC3383625 (Chemistry & biology, 2012)
# Several values for one entry are separate records, joined by “and”; a condition that tells them apart may be missing. Identical values can stand only once. Like-named read-outs stand apart in the source and are kept apart here. rhodamine = not defined here
# Experiments:
# Nox2 [1] = target: T1, Nox2 (Homo sapiens, UniProt P04839); assay: Cell-free assay for Nox2-dependent superoxide generation; assay type: biochemical
# Target sequence in this assay (P04839 2-570 limits assumed, one chain of several): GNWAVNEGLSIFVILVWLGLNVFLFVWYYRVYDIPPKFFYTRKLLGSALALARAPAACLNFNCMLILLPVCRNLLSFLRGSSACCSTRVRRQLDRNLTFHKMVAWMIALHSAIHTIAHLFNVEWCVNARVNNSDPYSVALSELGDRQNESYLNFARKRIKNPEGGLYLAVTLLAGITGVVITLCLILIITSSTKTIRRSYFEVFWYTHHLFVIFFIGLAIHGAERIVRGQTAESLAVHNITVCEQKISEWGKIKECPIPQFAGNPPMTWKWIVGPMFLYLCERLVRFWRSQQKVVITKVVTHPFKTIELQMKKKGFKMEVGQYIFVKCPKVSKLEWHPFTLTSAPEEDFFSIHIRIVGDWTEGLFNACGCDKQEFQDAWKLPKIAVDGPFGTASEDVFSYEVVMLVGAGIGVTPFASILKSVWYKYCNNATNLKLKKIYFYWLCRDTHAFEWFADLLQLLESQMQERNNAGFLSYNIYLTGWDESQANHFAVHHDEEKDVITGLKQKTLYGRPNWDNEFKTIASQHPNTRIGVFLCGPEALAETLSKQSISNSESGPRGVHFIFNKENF
# Nox2 [2] = target: T1, Nox2; assay: Nox2 activity in intact PMA-stimulated neutrophils; assay type: cell-based
# Target sequence in this assay (P04839 2-570 limits assumed, one chain of several): as above
# Nox1 = Nox1 (Homo sapiens, UniProt Q9Y5S8); assay: Nox1 activity in whole cells
# [3] = target: T2, p67phox-p47phox association (Homo sapiens, UniProt P14598); assay: Co-immunoprecipitation of p67phox with p47phox in PMA-stimulated neutrophils; assay type: cell-based; conditions: 10 μM ebselen, PMA-stimulated cells
# T2 sequence (P14598 1-390): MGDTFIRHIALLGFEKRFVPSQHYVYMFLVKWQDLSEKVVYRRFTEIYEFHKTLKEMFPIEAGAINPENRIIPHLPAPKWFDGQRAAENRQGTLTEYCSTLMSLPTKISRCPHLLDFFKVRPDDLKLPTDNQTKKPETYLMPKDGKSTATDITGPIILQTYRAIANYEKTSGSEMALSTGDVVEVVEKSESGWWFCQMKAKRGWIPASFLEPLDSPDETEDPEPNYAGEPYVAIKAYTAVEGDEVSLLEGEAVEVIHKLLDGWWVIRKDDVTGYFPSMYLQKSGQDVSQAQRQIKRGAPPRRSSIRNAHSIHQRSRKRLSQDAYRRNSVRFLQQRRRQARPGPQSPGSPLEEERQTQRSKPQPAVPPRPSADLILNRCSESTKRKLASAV
# [4] = ref Muller et al.,1984; cited from earlier work
# PKC = conditions: ref Cotgreave et al.,1989; cited from earlier work
# [5] = system: p47phox and p67phox translocation in neutrophils; assay type: cell-based, human; conditions: 10 μM ebselen
# Kupffer cells = conditions: read-out: IC50 for reactive oxygen by luminol luminescence; ref Wang et al.,1992; cited from earlier work
# [6] = system: protein-kinase-C-mediated phosphorylation of p47phox; assay: PKC-mediated phosphorylation of p47phox in neutrophils; assay type: cell-based, human; conditions: 10 μM ebselen
# [7] = target: T3, binding of MBP-p22-C and GST-p47-bis-SH3 (Homo sapiens, UniProt P14598); assay: Pull-down assay of MBP-p22-C with GST-p47-bis-SH3 on glutathione agarose beads; conditions: 20 μM ebselen
# T3 sequence (P14598 156-285): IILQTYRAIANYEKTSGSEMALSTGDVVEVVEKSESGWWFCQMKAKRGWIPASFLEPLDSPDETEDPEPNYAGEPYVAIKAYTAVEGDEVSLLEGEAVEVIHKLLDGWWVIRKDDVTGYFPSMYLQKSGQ
# [8] = system: guinea pig alveolar macrophages; conditions: read-out: IC50 for inhibition in guinea pig macrophages; ref Leurs et al.,1989; cited from earlier work
# [9] = target: T4, bis-SH3 domain of p47phox (binding of the PRD of p22phox) (Homo sapiens, UniProt P14598); assay: Fluorescence polarization
# T4 sequence (P14598 156-285): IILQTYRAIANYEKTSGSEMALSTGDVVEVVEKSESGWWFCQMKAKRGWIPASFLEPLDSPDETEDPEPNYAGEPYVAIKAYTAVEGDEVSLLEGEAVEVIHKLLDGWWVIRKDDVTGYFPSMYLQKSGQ
# Nox4 = target: T5, Nox4 (Homo sapiens, UniProt Q9NPH5); assay: Nox4 activity in whole cells; assay type: cell-based; conditions: read-out: EC50 for inhibition of Nox4 activity in whole cell assay; HEK/Nox4rb cells; ns = no significant inhibition
# T5 sequence (Q9NPH5 1-578): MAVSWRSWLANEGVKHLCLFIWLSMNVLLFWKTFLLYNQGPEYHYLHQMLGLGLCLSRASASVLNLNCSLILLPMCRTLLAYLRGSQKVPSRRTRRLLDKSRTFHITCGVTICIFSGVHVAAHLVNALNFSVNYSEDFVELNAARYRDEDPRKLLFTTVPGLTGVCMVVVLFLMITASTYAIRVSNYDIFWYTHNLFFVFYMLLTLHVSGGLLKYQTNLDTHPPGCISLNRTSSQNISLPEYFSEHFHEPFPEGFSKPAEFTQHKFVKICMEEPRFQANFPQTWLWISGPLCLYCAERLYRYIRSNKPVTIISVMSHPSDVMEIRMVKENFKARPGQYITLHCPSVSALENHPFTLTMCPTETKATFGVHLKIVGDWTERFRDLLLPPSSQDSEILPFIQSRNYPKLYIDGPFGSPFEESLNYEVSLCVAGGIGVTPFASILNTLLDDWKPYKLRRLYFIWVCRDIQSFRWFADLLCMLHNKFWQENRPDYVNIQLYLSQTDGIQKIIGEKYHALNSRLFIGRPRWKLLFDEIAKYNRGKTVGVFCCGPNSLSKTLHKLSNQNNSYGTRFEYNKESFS
# T5 sequence (P13498 2-195 partner limits assumed): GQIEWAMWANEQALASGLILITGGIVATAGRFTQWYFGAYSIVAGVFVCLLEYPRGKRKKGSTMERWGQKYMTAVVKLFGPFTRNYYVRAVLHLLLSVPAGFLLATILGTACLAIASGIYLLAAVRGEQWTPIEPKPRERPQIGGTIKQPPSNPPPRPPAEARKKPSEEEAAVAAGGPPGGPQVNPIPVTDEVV
# [10] = target: T6, GST-tagged p47phox-bis-SH3 domain (GST-p47-bis-SH3) (human, UniProt P14598 156-285); assay: fluorescence polarisation
# T6 sequence (looked up): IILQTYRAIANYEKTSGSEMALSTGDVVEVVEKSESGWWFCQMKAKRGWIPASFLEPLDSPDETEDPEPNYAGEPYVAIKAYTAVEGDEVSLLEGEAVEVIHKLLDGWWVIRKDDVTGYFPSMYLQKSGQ
# [11] = comparator as named in text (parent Thr101 or fluoro-derivative j)
# Chain of Nox1 (Q8NFA2 whole entry partner): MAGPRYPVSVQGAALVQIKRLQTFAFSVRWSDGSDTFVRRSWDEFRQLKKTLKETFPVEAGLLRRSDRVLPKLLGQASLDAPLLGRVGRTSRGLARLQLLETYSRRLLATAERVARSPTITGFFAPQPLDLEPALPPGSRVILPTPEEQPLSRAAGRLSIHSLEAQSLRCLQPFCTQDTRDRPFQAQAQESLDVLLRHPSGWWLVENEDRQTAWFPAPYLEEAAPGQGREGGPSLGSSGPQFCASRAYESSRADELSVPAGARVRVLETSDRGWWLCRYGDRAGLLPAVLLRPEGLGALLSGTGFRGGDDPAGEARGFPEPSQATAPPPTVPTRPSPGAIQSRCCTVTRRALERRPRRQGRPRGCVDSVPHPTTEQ
# Chain of Nox1 (Q9Y5S8 whole entry): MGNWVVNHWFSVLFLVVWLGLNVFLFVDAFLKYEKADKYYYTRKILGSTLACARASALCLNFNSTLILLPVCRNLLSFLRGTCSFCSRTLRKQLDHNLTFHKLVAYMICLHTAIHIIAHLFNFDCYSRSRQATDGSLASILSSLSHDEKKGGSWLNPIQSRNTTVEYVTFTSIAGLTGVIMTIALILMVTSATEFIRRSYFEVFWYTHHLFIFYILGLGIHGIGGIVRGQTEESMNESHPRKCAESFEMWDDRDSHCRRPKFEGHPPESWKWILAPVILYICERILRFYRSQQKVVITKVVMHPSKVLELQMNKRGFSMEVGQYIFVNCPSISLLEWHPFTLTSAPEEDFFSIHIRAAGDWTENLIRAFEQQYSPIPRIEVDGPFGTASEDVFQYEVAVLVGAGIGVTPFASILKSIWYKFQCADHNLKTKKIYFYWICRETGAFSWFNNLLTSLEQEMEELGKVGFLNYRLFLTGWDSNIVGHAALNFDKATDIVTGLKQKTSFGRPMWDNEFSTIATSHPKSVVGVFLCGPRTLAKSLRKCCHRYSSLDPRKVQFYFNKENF
molecule,measurement,setting,value
"c1ccc2c(c1)[I+]c1ccccc1-2 [DPI, diphenylene iodonium]",Luminescence relative to incubations containing DMSO vehicle alone,"Nox2 [1]; cell-free Nox2 assay, data not shown",less than 10%
same,Luminescence relative to DMSO-treated cells,"Nox2 [2]; neutrophils, 10 uM DPI, data not shown",less than 10%
O=c1c2ccccc2[se]n1-c1ccccc1 [Ebselen],EC50,Nox1,150 nM
same,Effect on co-immunoprecipitation of p67phox with p47phox (words),[3],did affect the ability of p67phox to coimmunoprecipitate with p47phox
same,Effect on co-immunoprecipitation of p67phox with p47phox (words),[3]; listed as ebselen,diminishes the co-immunoprecipitation
same,Optimum concentration needed to catalyze H2O2 peroxidase activity,[4],about 20 μM
same,Concentration inhibiting purified PKC enzyme,PKC,submicromolar
same,Effect on PMA-stimulated translocation of p47phox and p67phox,[5]; 500 nM PMA,completely blocked
same,Effect on translocation in the absence of PMA,[5]; no PMA,no effect on translocation
same,IC50,Kupffer cells,~1000 nM
same,Effect on protein-kinase-C-mediated phosphorylation of p47phox or other neutrophil proteins (words),[6],did not affect
same,Effect on protein-kinase-C-mediated phosphorylation of p47phox or other neutrophil proteins (words),[6]; listed as ebselen,does not inhibit PKC phosphorylation
same,Inhibition of binding of MBP-p22-C and GST-p47-bis-SH3 in pulldown,[7],markedly inhibited
same,IC50,[8],~20000 nM
same,IC50 in the FP binding assay,"[9]; rho-PRD plus GST-p47-bis-SH3, 1% DMSO",submicromolar
O=c1c2ccccc2sn1-c1ccccc1 [Thr101],EC50,"Nox1; read-out: EC50 for inhibition of Nox1 activity in whole cell assay, HEK/Nox1rb cells, ns = no significant inhibition",3000 nM
same,EC50,Nox4,8000 nM
same,IC50,"Nox2 [1]; read-out: IC50 in the cell-free Nox2 activity assay, neutrophil membranes, 1% DMSO",4000 nM and ~4000 nM
same,EC50,"Nox2 [2]; read-out: EC50 for inhibition of Nox2 activity in whole cell assay, human neutrophils, ns = no significant inhibition",300 nM
same,IC50,"[9]; read-out: IC50 in the FP binding assay, rho-PRD plus GST-p47-bis-SH3, 1% DMSO",4000 nM and ~4000 nM
COC(=O)c1ccc(-n2sc3ccccc3c2=O)cc1 [l],Fold improvement in activity versus comparator compound,Nox2 [1]; [11],~ 10 fold
same,Fold improvement in binding versus comparator compound,[9]; [11],~ 10 fold
same,IC50,"[9]; read-out: Potency in the binding assay, FP assay",500 nM
rhodamine-PPTNPPPRPPAE-NH2 (reading uncertain) [rhodamine-labeled peptide corresponding to the PRD of p22phox (rho-PRD)],Kd,[10],20 to 40 nM and 20 nM
